Data as given in US20240018140A1, “MODIFIED IMIDAZOPYRIDINES AS GLUCOSYLCERAMIDE SYNTHASE INHIBITORS” (Merck Sharp & Dohme LLC, priority 2020, published 2024).

Molecular target: glucosylceramide synthase (GCS) (Homo sapiens (Human), UniProt Q16739)
Experiment: UDP-Glo glucosylceramide synthase biochemical assay
Settings: endogenous GCS in Golgi preparations from human A375 malignant melanoma skin cells; C6 ceramide and UDP-glucose substrates; 20 h incubation; UDP detected by luminescence
Description: UDP-Glo™ Glucosylceramide Synthase Biochemical Assay
A UDP-Glo™ glucosylceramide synthase biochemical assay was utilized to evaluate the effect of test compounds on the activity of endogenous levels of GCS enzyme contained within Golgi preparations isolated from human A375 malignant melanoma skin cells. The UDP-Glo™ glucosylceramide synthase assay uses UDP-Glucose as a nucleotide-glycosyl donor and ceramide as substrate acceptor molecules. In the reaction, glucosylceramide synthase (GCS) transfers glucose from UDP-Glucose to ceramide. Glucosylceramide and UDP are released as products.
Using Promega's UDP-Glo™ Glycosyltransferase assay kit (Promega Corporation, Madison, WI, USA (Promega)), GCS activity was indirectly measured by detecting the amount of UDP produced. An aliquot of GCS enzyme (1.5 μg crude golgi preparation, total protein) and titrated test compound were aliquoted to each well and incubated for 30 minutes at room temperature. […] An equivalent volume of substrate mixture was then added to each well. Following a 20 h incubation at room temperature to allow for GCS turnover of substrate, an equal volume of UDP detection reagent (Promega) was added to each well and incubated for an additional 75 minutes at room temperature to simultaneously convert the accumulated UDP product into ATP and generate light in a luciferase reaction. The generated light was detected using a luminometer. […] luminescence values (RLUs) were normalized to mean “min” and “max” effects, as determined on each plate. “Min” was defined as the mean of the values of the wells treated with vehicle (DMSO) and which represent 0% inhibition; “max” was defined as the mean of the values of the wells treated with a reference inhibitor and which represent the 100% effect. Values for % Emax and EC50 were determined by best-fitting the normalized data to a curve in Activity Base along a four-parameter logistic nonlinear regression (4PL) model (based on the Levenberg-Marquardt algorithm and defined by the equation below): […]
where: n is 4PMin (bottom of the curve); m is 4PMax (top of the curve); i is IP (inflection point of curve); and p is slope. See Levenberg, K., “A Method for the Solution of Certain Problems in Least Squares”, Quart. Appl. Math. 2, (1944), pp 164-168 and Marquardt, D., “An Algorithm for Least Squares Estimation on Nonlinear Parameters”, SIAM J. Appl. Math. 11, (1963) pp 431-441.

Chain of glucosylceramide synthase (GCS) (Q16739 whole entry): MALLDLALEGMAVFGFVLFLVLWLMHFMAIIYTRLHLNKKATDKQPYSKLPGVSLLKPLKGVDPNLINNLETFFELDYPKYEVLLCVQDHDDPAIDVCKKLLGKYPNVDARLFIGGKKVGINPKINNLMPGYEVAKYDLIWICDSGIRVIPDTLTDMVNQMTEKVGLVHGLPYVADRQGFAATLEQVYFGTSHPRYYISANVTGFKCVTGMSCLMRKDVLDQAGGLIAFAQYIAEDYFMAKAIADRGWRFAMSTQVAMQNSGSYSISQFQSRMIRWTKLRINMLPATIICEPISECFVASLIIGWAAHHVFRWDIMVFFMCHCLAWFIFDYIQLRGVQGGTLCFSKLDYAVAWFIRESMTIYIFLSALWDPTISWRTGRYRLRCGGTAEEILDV

| EC50 [nM] | SMILES |
| --- | --- |
| 5.9 | N#C[C@@]1(NC(=O)c2cn3cccc(-c4ccccc4OCC(F)(F)F)c3n2)CCOC1 [Compound 34, (S)-N-(3-cyanotetrahydrofuran-3-yl)-8-(2-(2,2,2-trifluoroethoxy)phenyl)imidazo[1,2-a]pyridine-2-carboxamide] |
| 7.2 | CC(CO)(NC(=O)c1cn2cccc(-c3ccccc3OCC(F)(F)F)c2n1)C(F)(F)F (single isomer, unassigned) [Compound 10, (R or S)-N-(1,1,1-trifluoro-3-hydroxy-2-methylpropan-2-yl)-8-(2-(2,2,2-trifluoroethoxy)phenyl)imidazo[1,2-a]pyridine-2-carboxamide] |
| 6.7 | O=C(N[C@H]1C[C@@H](CO)C1)c1cn2cccc(-c3ccccc3OCC(F)(F)F)c2n1 [Compound 40] |
| 2.1 | O=C(N[C@H]1CC[C@H](CO)CC1)c1cn2cccc(-c3ccccc3OCC(F)(F)F)c2n1 [Compound 29, N-(trans-4-(hydroxymethyl)cyclohexyl)-8-(2-(2,2,2-trifluoroethoxy)phenyl)imidazo[1,2-a]pyridine-2-carboxamide] |
| 32 | CC(C)(O)C1(C)COC(c2cn3cc(Cl)cc(-c4ccccc4OCC(F)(F)F)c3n2)=N1 (stereo not drawn) [Compound 78, 2-[2-[6-chloro-8-[2-(2,2,2-trifluoroethoxy)phenyl]imidazo[1,2-a]pyridin-2-yl]-4-methyl-5H-oxazol-4-yl]propan-2-ol] |
| 17 | OCc1cn2cc(C(F)(F)F)cc(-c3ccccc3OCC(F)(F)F)c2n1 [Compound 62, (8-(2-(2,2,2-trifluoroethoxy)phenyl)-6-(trifluoromethyl)imidazo[1,2-a]pyridin-2-yl)methanol] |
| 9.2 | O=C(NC12CC(CO)(C1)C2)c1cn2cccc(-c3ccccc3OCC(F)(F)F)c2n1 [Compound 47, N-(3-(hydroxymethyl)bicyclo[1.1.1]pentan-1-yl)-8-(2-(2,2,2-trifluoroethoxy)phenyl)imidazo[1,2-a]pyridine-2-carboxamide] |
| 16 | O=C(N[C@H]1C[C@@H](O)C1)c1cc2c(-c3ccccc3OCC(F)(F)F)cccc2cn1 [Compound 84] |
| 5.8 | CC(C)(C)NC(=O)c1cn2cc(F)cc(-c3ccccc3OCC(F)(F)F)c2n1 [Compound 13, N-(tert-butyl)-6-fluoro-8-(2-(2,2,2-trifluoroethoxy)phenyl)imidazo[1,2-a]pyridine-2-carboxamide] |
| 5.6 | COc1ccc(Cl)cc1-c1cccn2cc(C(=O)NC34CCC(O)(CC3)C4)nc12 [Compound 30, 8-(5-chloro-2-methoxyphenyl)-N-(4-hydroxybicyclo[2.2.1]heptan-1-yl)imidazo[1,2-a]pyridine-2-carboxamide] |
| 28 | O=C(Nc1ccc[n+]([O-])c1)c1cn2cccc(-c3ccccc3OCC(F)(F)F)c2n1 [Compound 58, 3-(8-(2-(2,2,2-trifluoroethoxy)phenyl)imidazo[1,2-a]pyridine-2-carboxamido)pyridine-1-oxide] |
| 3 | CN(CCN1CCCC1)C(=O)c1cn2cccc(-c3ccccc3OCC(F)(F)F)c2n1 [Compound 54, N-methyl-N-(2-(pyrrolidin-1-yl)ethyl)-8-(2-(2,2,2-trifluoroethoxy)phenyl)imidazo[1,2-a]pyridine-2-carboxamide] |
| 15 | CC(C)(O)c1cn2cc(Cl)cc(-c3ccccc3OCC(F)(F)F)c2n1 [Compound 66, 2-(6-chloro-8-(2-(2,2,2-trifluoroethoxy)phenyl)imidazo[1,2-a]pyridin-2-yl)propan-2-ol] |
| 16 | CC1(CO)CN=C(c2cn3cc(Cl)cc(-c4ccccc4OCC(F)(F)F)c3n2)O1 (stereo not drawn) [Compound 71, (2-(6-chloro-8-(2-(2,2,2-trifluoroethoxy)phenyl)imidazo[1,2-a]pyridin-2-yl)-5-methyl-4,5-dihydrooxazol-5-yl)methanol] |

| SMILES | EC50 [nM] |
| --- | --- |
| NCc1cn2cccc(-c3ccccc3OCC(F)(F)F)c2n1 [Compound 80, (8-(2-(2,2,2-trifluoroethoxy)phenyl)imidazo[1,2-a]pyridin-2-yl)methanamine] | 330 |
